Experimental data: publication PMC6930649, “Four New Iridoid Metabolites Have Been Isolated from the Stems of Neonauclea reticulata (Havil.) Merr. with Anti-Inflammatory Activities on LPS-Induced RAW264.7 Cells” (Molecules, 2019)
Values after ≈ are worked out from the molar mass of the structure shown.

Columns and labels:
[1] = system: NO production by LPS stimulated in RAW264.7 cells; experiment: Inhibition of NO production in LPS-stimulated RAW264.7 macrophages (Griess reagent); format: cell-based, mouse; settings: LPS-stimulated RAW264.7 cells; for IC50: Mus musculus, read-out: IC50 (inhibition of nitric oxide production)
Method: (§1) RAW264.7 the mouse macrophages cell line (Bioresource Collection and Research Center (BCRC) Number: 60001) was obtained from Food Industry Research and Development Institute (Hsinchu, Taiwan). All of the cell lines were cultured in DMEM containing 10% (v:v) fetal bovine serum (FBS), penicillin and streptomycin (100 U/mL), 4 mM L-glutamine (100 U/mL). The cells were cultured in a humidified incubator under 5% CO2 at 37 °C. The RAW264.7 cells (5 × 10^5 cells per mL) were seeded into plates for 24 h before treatment.
(§2) The in-vitro cell viability activity of MeOH extracts, partition fractions and pure compounds were determined by the MTT assay. RAW264.7 cells (5 × 10^4/well) were seeded in 96-well plates and incubated for 24 h. The cells were treated with MeOH extracts and contain partition fractions in various concentrations (0, 62.5, 125, 250, 500 and 1000 μg/mL), compounds and positive control (0, 6.25, 12.5, 25, 50 and 100 μg/mL) in the presence or absence of LPS (100 ng/mL) for 24 h. After 24 h, the medium was replaced with a medium containing 0.5 mg/mL MTT solution and incubated at 37 °C for 4 h. After the end of the MTT reaction, we used 0.04 N HCl /isopropanol solution to dissolve the formazan crystals. The absorbance was measured at 570 nm using a microplate reader (Molecular Devices, LLC.). The cell viability was calculated and compared with the control group.
The supernatant collected from cell culture and mixed with an equal volume of Griess reagent (1% sulphanilamide, 0.1% naphthylethylenediamine dihydrochloride and 5% phosphoric acid) and the absorbance value was measured at 540 nm using an ELISA plate reader.
The IC50 values for NO production were presented as mean values ± SD (standard deviations) of at least three independent experiments. The statistical significance of the differences was evaluated using Student’s t-test using IBM SPSS v.20.0 (SPSS Inc., Chicago, IL, USA). The percentage of NO production and cell viability were compared using variance analysis with GraphPad Prism 7.0 (GraphPad Software Inc., San Diego, CA, USA).

[2] = Cell viability assay (MTT) in RAW264.7 cells; format: cell-based; settings: mouse, RAW264.7 macrophage cells, 6.25-100 μg/mL, LPS 100 ng/mL, mean ± SD of three independent experiments
Method: as §1, §2

[3] = pure compounds, 6.25-100 μg/mL, 24 h, mean ± SD of three independent experiments

Row | Molecule | IC50 [1, 3] [mg/L] | CC50 at 24 h [2] [mg/L] | IC50 fold less than indomethacin (positive control) ([1]; NO inhibition) [fold] | IC50 (inhibition of nitric oxide production) [1, 3] [mg/L]
1 | COC(=O)c1ccc(O)c(O)c1 [Compound 19, protocatechuic acid methyl ester] | > 100 | > 100 | – | –
2 | O=C(O)c1ccc(O)c(O)c1 [Compound 14, protocatechuic acid] | 72.9 ± 4.97 (≈ 473 µM) | > 100 | – | –
3 | COc1cc(C(=O)CCO)cc(OC)c1O [Compound 17, 3-hydroxy-1-(4-hydroxy 3,5-dimethoxyphenyl)-1-propanone] | > 100 | > 100 | – | –
4 | O=C(O)/C=C/c1ccc(O)c(O)c1 [Compound 15, trans-caffeic acid] | 95.2 ± 1.2 (≈ 528 µM) | > 100 | – | –
5 | COc1cc(C(=O)O)cc(OC)c1O [Compound 16, syringic acid] | > 100 | > 100 | – | –
6 | COc1cc([C@H]2OC[C@H]3[C@@H]2CO[C@@H]3c2cc(OC)c(O)c(OC)c2)cc(OC)c1O [Compound 10, syringaresinol] | 9.18 ± 1.9 (≈ 21.9 µM) | > 100 | 5 | –
7 | COC(=O)C1=CNC(=O)[C@@H]2[C@@H](C)[C@@H](O)C[C@H]12 [Compound 5, strychnovoline] | > 100 | > 100 | – | –
8 | COC(=O)C1=COC[C@@H]2[C@@H](C)[C@@H](O)C[C@H]12 [Compound 6, siphonostegiol] | > 100 | > 100 | – | –
9 | COC(=O)C1C(O)OC(=O)C2C(C)C(O)CC12 (stereo not drawn) [Compound 1, neonanin C] | > 100 | > 100 | – | –
10 | C[C@@H]1[C@H]2COC(=O)C[C@H]2C[C@@H]1O [Compound 7, isoboonein] | 86.3 ± 3.45 (≈ 507 µM) | > 100 | – | –
11 | COc1ccc2c(c1)c(CC(=O)O)c(C)n2C(=O)c1ccc(Cl)cc1 [Indomethacin, indomethacin, reference compound] | 46.7 ± 3.14 (≈ 131 µM) | > 100 | – | –
12 | COc1ccc(O)c(O)c1 [Compound 13, 4-methoxycatechol] | > 100 | > 100 | – | –
13 | COc1cc([C@@H]2OC[C@@H]3[C@H]2CO[C@H]3c2cc(OC)c(O)c(OC)c2)ccc1O [Compound 12, (+)-medioresinol] | 76.2 ± 2.42 (≈ 196 µM) | > 100 | – | –
14 | C[C@@H]1[C@H]2COC(=O)[C@@H](CO)[C@H]2C[C@@H]1O [Compound 9, alyxialactone] | > 100 | > 100 | – | –
15 | COC(=O)C(CO)C1CC(O)C(C)C1COC(=O)c1ccccc1 (stereo not drawn) [Compound 2, neonanin D] | > 100 | > 100 | – | –
16 | C/C=C1/C(=O)OCC[C@H]1CCO [Compound 8, floribundane B] | > 100 | > 100 | – | –
17 | COc1cc(/C=C/C(=O)O)ccc1O [Compound 18, ferulic acid] | > 100 | > 100 | – | –
18 | (+)-pinoresinol [Compound 11] | – | – | – | >100
19 | COc1cc(C(=O)C(O)CO)ccc1O (stereo not drawn) [Compound 20, C-veratroylglycol] | > 100 | > 100 | – | –
20 | COC(=O)C1=COC(O)C2C1CC(OC1OC(=O)C3C(C)C(O)CC3C1C(=O)OC)C2C (stereo not drawn) [Compound 3, reticunin A] | > 100 | > 100 | – | –
21 | COC(=O)C1COC(=O)C2C(C)C(OC3OC(=O)C4C(C)C(O)CC4C3C(=O)OC)CC12 (stereo not drawn) [Compound 4, reticunin B] | > 100 | > 100 | – | –
